Data: PMC3472742, “Bio-Guided Isolation of the Cytotoxic Terpenoids from the Roots of Euphorbia kansui against Human Normal Cell Lines L-O2 and GES-1” (International Journal of Molecular Sciences, 2012)
Read-outs that look alike come from different tables or passages of the source.

Key:
[1] = system: human normal liver cells L-O2; assay: MTT cell proliferation (cytotoxicity) assay on human normal liver cells L-O2; assay type: cell-based; details: for IC50: 48 h, pure compounds, MTT, n = 6, read-out: IC50 L-O2 (proliferation inhibition)
Experimental: (§1) Human normal liver cell L-O2 was kindly donated by the School of Life Science, Nanjing Normal University (Nanjing, China), and Human normal gastric epithelial cell GES-1 was kindly donated by the Department of Gastroenterology, Nanjing Drum Tower Hospital (Nanjing, China). Human normal liver cell LO-2 was routinely cultured in DMEM medium, supplemented with 10% (v/v) fetal bovine serum (FBS), 100 U/mL of penicillin and 100 μg/mL of streptomycin in a humidified atmosphere with 5% CO2 at 37 °C in an incubator. The culture medium was changed every day. Cultures were dissociated with 0.25% trypsase in phosphate buffered (pH 7.2~7.4) saline (PBS). Human normal gastric epithelial cell GES-1 was routinely cultured in DMEM medium, supplemented with 15% (v/v) calf serum (CS), 100 U/mL of penicillin and 100 μg/mL of streptomycin in a humidified atmosphere with 5% CO2 at 37 °C in an incubator. The culture medium was changed every two days. Cultures were dissociated with 0.25% trypsase and 0.05% EDTA in PBS (pH 7.2~7.4).
(§2) Cytotoxicity activity was assayed by MTT method as described. Briefly, cells were seeded in 96-well plates (Costar, Corning Co., Ltd., Beijing, China) with 100 μL at a concentration of cell suspension of 1.0 × 10_4 cells/mL (L-O2 cell) and 1.0 × 10_5 cells/mL (GES-1 cell), and incubated for 24 h at 37 °C in a humidified atmosphere of 5% CO2 in an incubator.
(§3) Every sample was solubilized in dimethyl sulfoxide (DMSO) to a concentration of 10 mg/mL and stored at 4 °C, then diluted with complete medium to the desired series concentration before treating the cells. Each solution was added into 96-well plates with 100 μL per well, repeated 6 well. Cells of the control groups were treated with the same volume of medium. The treated cells with different groups were incubated for 48 h at 37 °C in a humidified atmosphere of 5% CO2 in an incubator. Then, the treated cells were added with 20 μL/well of MTT (5.0 mg/mL), and incubated for a further 4 h in an incubator. The growth medium was removed from all the wells, and 150 μL DMSO were added to each well. The plates were shaken gently for 10 min to blend the mixture. The absorbance value of each well was read at 490 nm using a microplate reader. All experiments were performed at least three times. The inhibition rate of cell proliferation was calculated according to the formula:
(§4) (1) cell inhibition (%)=1-sample solution absorbance value/control absorbance value)×100%
(§5) The results were expressed as an inhibition ratio and IC50 (concentration that inhibits 50% of cell growth). The data were analyzed with software SPSS 15.0 (SPSS Inc.: Chicago, IL, USA). The anti-proliferation activity is more significant when the IC50 is smaller.

[2] = system: human normal gastric epithelial cell GES-1; assay: MTT cell proliferation (cytotoxicity) assay on human normal gastric epithelial cells GES-1; assay type: cell-based; details: for IC50: pure compounds, MTT, 48 h, n = 6, read-out: IC50 GES-1 (proliferation inhibition); for inhibition activity on GES-1 cell lines growth vs control, dose-dependent: Figure 2
Experimental: as §1, §2, §3, §4, §5

[3] = concentration range 0.78–12.5 μg/mL, Figure 3
[4] = concentration range 0.78–12.5 μg/mL
[5] = concentration range 0.39–6.25 μg/mL

Structure (SMILES)	IC50 ([1]; Homo sapiens) [µM]	IC50 ([2]; Homo sapiens, GES1, 48 h) [µM]	inhibition activity on L-O2 cell lines growth vs control, dose-dependent [1, 3]	inhibition activity on GES-1 cell lines growth vs control, dose-dependent [2, 4]	other results
C=C1[C@H](OC(C)=O)[C@@H](OC(=O)c2ccccc2)[C@@H](OC(C)=O)C(C)(C)[C@H]2O[C@](O)([C@H](C)C2=O)[C@@]2(OC(C)=O)C[C@H](C)[C@H](OC(C)=O)[C@@H]2[C@H]1OC(C)=O [Compound 1, kansuinine A]	> 100	> 100			
C=C1C(OC(=O)c2ccccc2)C(O)C(=O)C(C)(C)C2OC2C(C)C(=O)C2(O)C(C1OC(=O)c1ccccc1)C(OC(C)=O)C(C)(O)C2OC(C)=O (stereo not drawn) [Compound 2, kansuinine B]	> 100	> 100			
CC(=O)OC1C(C)=CC23C(=O)C(C=C(C)C(OC(=O)c4ccccc4)C12O)C1C(CC3C)C1(C)C (stereo not drawn) [Compound 4, kansuiphorin C]	> 100	> 100			
CCCCCC=CC=CC(=O)OC1C(C)=CC23C(=O)C(C=C(COC(C)=O)C(O)C12O)C1C(CC3C)C1(C)C (stereo not drawn) [Compound 5, 3-O-(2′E,4′Z-Decadienoyl)-20-O-acetylingenol]	12.4	8.51	significant inhibition activity	significant inhibition activity	
CCCCCC=CC=CC(=O)OC1C(C)=CC23C(=O)C(C=C(COC(C)=O)C(O)C12O)C1C(CC3C)C1(C)C (stereo not drawn) [Compound 6, 3-O-(2′E,4′E-Decadienoyl)-20-O-acetylingenol]			significant inhibition activity		IC50 [1]: 8.22 µM; inhibition activity on GES-1 cell lines growth vs control, dose-dependent [2, 5]: significant inhibition activity; IC50 [2]: 6.67 µM
CCCCCC=CC=CC(=O)OC1C(C)=CC23C(=O)C(C=C(C)C(O)C12O)C1C(CC3C)C1(C)C (stereo not drawn) [Compound 7, 3-O-(2′E,4′Z-Decadienoyl)-20-deoxyingenol]	13.1	3.53	significant inhibition activity	significant inhibition activity	
CC1=CC2C(=O)C3(C=C(C)C(OC(=O)c4ccccc4)C3(O)C1O)C(C)CC1C2C1(C)C (stereo not drawn) [Compound 8, 3-O-Benzoyl-20-deoxyingenol]	70.8	23.5		significant inhibition activity	inhibition activity on L-O2 cell lines growth vs control ([1]; concentration range 3.125–50 μg/mL, Figure 3): significant inhibition activity
CC1=CC23C(=O)C(C=C(C)C(OC(=O)c4ccccc4)C2(O)C1O)C1C(CC3C)C1(C)C (stereo not drawn) [Compound 9, 5-O-Benzoyl-20-deoxyingenol]	34.5	22			inhibition activity on L-O2 cell lines growth vs control, dose-dependent ([1]; concentration range 1.56–25 μg/mL, Figure 3): significant inhibition activity; inhibition activity on GES-1 cell lines growth vs control, dose-dependent ([2]; concentration range 1.56–25 μg/mL): significant inhibition activity
CC(C)=CCC[C@H](C)[C@@H]1CC[C@]2(C)C3=C(CC[C@@]12C)[C@@]1(C)CC[C@H](O)C(C)(C)C1CC3=O (stereo partly drawn) [Compound 11, epi-kansenone]	17.8	8.04	significant inhibition activity		inhibition activity on GES-1 cell lines growth vs control, dose-dependent [2, 5]: significant inhibition activity; melting point: 116 to 118 °C
CC(C)=CCC[C@@H](C)[C@@H]1CC[C@]2(C)C3=C(CC[C@@]12C)[C@@]1(C)CC[C@H](O)C(C)(C)[C@@H]1CC3 [Compound 12, euphol]	> 100	> 100			
